Square brackets hold non-standard residues; d marks the D form. Peptide text beside a SMILES is read from it. αMeY = C[C@](N)(Cc1ccc(O)cc1)C(=O)O; αMeF = C[C@](N)(Cc1ccccc1)C(=O)O; Cha = N[C@@H](CC1CCCCC1)C(=O)O; Aib = CC(C)(N)C(=O)O
Columns and labels:
Type in all cases: cell-based
[1] = molecular target: T1, human GIPR (Homo sapiens, UniProt P48546); assay: Agonist activity against human GIPR, CRE-luciferase reporter assay (rise in intracellular cAMP) in hGIPR/CRE-LUC/CHO-K1 cells
T1 construct: expressed in transfected cells; host or cells: CHO-K1 (CRE-LUC/CHO-K1), plasmid hGIPR/pMSRα-neo
T1 sequence (P48546 22-466): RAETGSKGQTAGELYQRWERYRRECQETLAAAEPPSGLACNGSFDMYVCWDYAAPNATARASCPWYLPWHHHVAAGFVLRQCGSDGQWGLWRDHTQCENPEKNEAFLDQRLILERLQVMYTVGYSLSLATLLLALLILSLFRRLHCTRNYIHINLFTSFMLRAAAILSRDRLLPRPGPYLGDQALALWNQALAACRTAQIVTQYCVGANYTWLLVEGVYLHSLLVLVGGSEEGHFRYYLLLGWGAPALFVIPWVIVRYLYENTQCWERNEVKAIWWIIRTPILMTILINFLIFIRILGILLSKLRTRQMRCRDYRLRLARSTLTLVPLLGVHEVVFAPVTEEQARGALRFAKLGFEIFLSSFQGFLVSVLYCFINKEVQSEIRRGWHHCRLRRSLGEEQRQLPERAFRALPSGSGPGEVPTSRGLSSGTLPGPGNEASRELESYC

[2] = molecular target: T2, human glucagon R (Homo sapiens, UniProt P47871); assay: Agonist activity against human glucagon R, CRE-luciferase reporter assay in hGlucagonR/CRE-LUC/CHO-K1 cells
T2 construct: expressed in transfected cells; host or cells: CHO-K1 (CRE-LUC/CHO-K1), plasmid hGlucagonR/pMSRα-neo

[3] = molecular target: T3, human GLP-1R (Homo sapiens, UniProt P43220); assay: Agonist activity against human GLP-1R, CRE-luciferase reporter assay in hGLP-1R/CRE-luc/CHO-K1 cells
T3 construct: expressed in transfected cells; host or cells: CHO-K1, plasmids hGLP-1/pIRESneo3 and Cre-luc(Zeo)
T3 sequence (P43220 24-463): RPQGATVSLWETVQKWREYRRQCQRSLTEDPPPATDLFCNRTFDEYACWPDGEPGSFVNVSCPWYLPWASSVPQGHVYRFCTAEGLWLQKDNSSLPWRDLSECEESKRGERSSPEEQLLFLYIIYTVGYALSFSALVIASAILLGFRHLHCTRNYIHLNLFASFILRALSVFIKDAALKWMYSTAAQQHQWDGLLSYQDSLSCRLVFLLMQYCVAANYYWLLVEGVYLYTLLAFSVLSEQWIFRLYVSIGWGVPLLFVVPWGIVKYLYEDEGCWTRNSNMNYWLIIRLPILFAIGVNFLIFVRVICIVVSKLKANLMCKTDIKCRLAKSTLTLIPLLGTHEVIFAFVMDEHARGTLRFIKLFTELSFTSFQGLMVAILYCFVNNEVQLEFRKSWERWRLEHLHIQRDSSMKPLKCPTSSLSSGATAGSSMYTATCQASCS

T2 sequence (P47871 26-477): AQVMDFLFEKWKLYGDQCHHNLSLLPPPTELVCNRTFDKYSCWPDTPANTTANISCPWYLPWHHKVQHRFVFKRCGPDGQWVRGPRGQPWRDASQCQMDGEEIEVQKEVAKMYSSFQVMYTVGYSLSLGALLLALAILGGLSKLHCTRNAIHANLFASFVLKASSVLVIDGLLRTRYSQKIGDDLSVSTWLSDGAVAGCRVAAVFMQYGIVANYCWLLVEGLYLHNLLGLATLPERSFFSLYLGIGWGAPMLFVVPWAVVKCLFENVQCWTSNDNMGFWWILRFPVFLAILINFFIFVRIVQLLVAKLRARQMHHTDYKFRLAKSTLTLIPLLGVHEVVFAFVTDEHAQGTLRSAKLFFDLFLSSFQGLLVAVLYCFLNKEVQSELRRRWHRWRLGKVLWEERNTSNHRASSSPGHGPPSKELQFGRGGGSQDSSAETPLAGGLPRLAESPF

Row | Structure (SMILES) | EC50 [1] | EC50 [2] | EC50 [3]
1 | CC(C)C[C@H](NC(=O)[C@H](CC(C)C)NC(=O)[C@H](Cc1c[nH]c2ccccc12)NC(=O)[C@H](CCCCN)NC(=O)[C@@H](NC(=O)[C@H](Cc1ccccc1)NC(=O)[C@H](CCC(=O)O)NC(=O)[C@H](C)NC(=O)[C@H](CCC(N)=O)NC(=O)[C@H](C)NC(=O)[C@H](CCC(N)=O)NC(=O)[C@H](CCCCN)NC(=O)[C@H](CC(=O)O)NC(=O)[C@H](CC(C)C)NC(=O)[C@H](CC1CCCCC1)NC(=O)[C@H](CCCCN)NC(=O)C(C)(C)NC(=O)[C@H](Cc1ccc(O)cc1)NC(=O)[C@H](CC(=O)O)NC(=O)[C@H](CO)NC(=O)[C@@H](NC(=O)[C@](C)(Cc1ccccc1)NC(=O)[C@@H](NC(=O)CNC(=O)[C@H](CCC(=O)O)NC(=O)C(C)(C)NC(=O)[C@@H](N)Cc1ccc(O)cc1)[C@@H](C)O)[C@@H](C)O)C(C)C)C(=O)N[C@@H](CCCCN)C(=O)NCC(=O)NCC(=O)N1CCC[C@H]1C(=O)N[C@@H](CO)C(=O)N[C@@H](CO)C(=O)NCC(=O)N[C@@H](C)C(=O)N1CCC[C@H]1C(=O)N1CCC[C@H]1C(=O)N1CCC[C@H]1C(=O)N[C@@H](CO)C(=O)N[C@@H](CCCCN)C(N)=O [Example 16] (H-Y[Aib]EGT[αMeF]TSDY[Aib]K[Cha]LDKQAQAEFVKWLLKGGPSSGAPPPSK-NH2) | 0.0091 nM | > 1000 nM | 0.015 nM
2 | CC[C@H](C)[C@H](NC(=O)C(C)(C)NC(=O)[C@H](Cc1ccc(O)cc1)NC(=O)[C@H](CC(=O)O)NC(=O)[C@H](CO)NC(=O)[C@@H](NC(=O)[C@](C)(Cc1ccccc1)NC(=O)[C@@H](NC(=O)CNC(=O)[C@H](CCC(=O)O)NC(=O)C(C)(C)NC(=O)[C@@H](N)Cc1ccc(O)cc1)[C@@H](C)O)[C@@H](C)O)C(=O)N[C@@](C)(Cc1ccc(O)cc1)C(=O)N[C@@H](CC(C)C)C(=O)N[C@@H](CC(=O)O)C(=O)N[C@@H](CCCCN)C(=O)N[C@@H](CCC(N)=O)C(=O)N[C@@H](C)C(=O)N[C@@H](CCC(N)=O)C(=O)N[C@@H](C)C(=O)N[C@@H](CCC(=O)O)C(=O)N[C@@H](Cc1ccccc1)C(=O)N[C@H](C(=O)N[C@@H](CCCCN)C(=O)N[C@@H](Cc1c[nH]c2ccccc12)C(=O)N[C@@H](CC(C)C)C(=O)N[C@@H](CC(C)C)C(=O)N[C@@H](CCCCN)C(=O)NCC(=O)NCC(=O)N1CCC[C@H]1C(=O)N[C@@H](CO)C(=O)N[C@@H](CO)C(=O)NCC(=O)N[C@@H](C)C(=O)N1CCC[C@H]1C(=O)N1CCC[C@H]1C(=O)N1CCC[C@H]1C(=O)N[C@@H](CO)C(=O)N[C@@H](CCCCN)C(N)=O)C(C)C [Example 17] (H-Y[Aib]EGT[αMeF]TSDY[Aib]I[αMeY]LDKQAQAEFVKWLLKGGPSSGAPPPSK-NH2) | 0.014 nM | > 1000 nM | 0.018 nM

From patent US9200051B2, “Peptide compound” (TAKEDA PHARMACEUTICAL COMPANY LIMITED, priority 2013, dated 2015)
